From ChEMBL document CHEMBL1201862, “PubChem BioAssay data set” (2004)
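96-well plates; 48 h exposure; 5 concentrations. Endpoints by linear interpolation between flanking doses. Not reached: highest tested concentration assigned. GI50 = concentration required for 50% inhibition of growth.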 Active and inactive are the calls of the source. Rule as the data show it: active = GI50 up to about 1.1 µM and inactive = higher.

Tests used:
Test in all cases: inhibition of tumour cell growth, NCI panel, 48 h
ACHN = system: ACHN
BT-549 = system: BT-549
DU-145 = system: DU-145
HCC 2998 = system: HCC 2998
HCT-116 = system: HCT-116
HCT-15 = system: HCT-15
HL-60 = system: HL-60
M14 = system: M14
MOLT-4 = system: MOLT-4
NCI-H460 = system: NCI-H460
OVCAR-8 = system: OVCAR-8
PC-3 = system: PC-3
RXF 393 = system: RXF 393
SK-OV-3 = system: SK-OV-3
SW-620 = system: SW-620
T47D = system: T47D
UACC-62 = system: UACC-62
UO-31 = system: UO-31
Malme-3M = system: Malme-3M

Row | SMILES | GI50 (ACHN) | GI50 (BT-549) | GI50 (DU-145) | GI50 (HCC 2998) | GI50 (HCT-116) | GI50 (HCT-15) | GI50 (HL-60) | GI50 (M14) | GI50 (MOLT-4) | GI50 (NCI-H460) | GI50 (OVCAR-8) | GI50 (PC-3) | GI50 (RXF 393) | GI50 (SK-OV-3) | GI50 (SW-620) | GI50 (T47D) | GI50 (UACC-62) | GI50 (UO-31) | GI50 (Malme-3M)
1 | O=c1oc2cc(O)ccc2c(O)c1C(c1ccccc1F)c1c(O)c2ccc(O)cc2oc1=O | > 100 µM (inactive) | 11.3 µM (inactive) | > 100 µM (inactive) | 21.2 µM (inactive) | 48.4 µM (inactive) | 31 µM | 17.9 µM (inactive) | > 100 µM (inactive) | 45.8 µM (inactive) | > 100 µM (inactive) | 56.4 µM (inactive) | > 100 µM (inactive) | 39.7 µM (inactive) | > 100 µM (inactive) | 38.4 µM (inactive) | > 100 µM (inactive) | 36.6 µM (inactive) | > 100 µM (inactive) | 
2 | COc1ccc(C(OCC2OC3(COC(c4ccccc4)(c4ccc(OC)cc4)c4ccc(OC)cc4)C(Oc4nc(=O)ccn43)C2O)(c2ccccc2)c2ccc(OC)cc2)cc1 (stereo unspecified) | > 100 µM (inactive) | > 100 µM (inactive) | > 100 µM (inactive) |  | > 100 µM (inactive) | > 100 µM | > 100 µM (inactive) | > 100 µM (inactive) | > 100 µM (inactive) |  | > 100 µM (inactive) | > 100 µM (inactive) | > 100 µM (inactive) | > 100 µM (inactive) | > 100 µM (inactive) | > 100 µM (inactive) | > 100 µM (inactive) | > 100 µM (inactive) | > 100 µM (inactive)
3 | CCOC(=O)c1nc2ccccc2nc1Nc1ccc(OC)cc1 | 32.4 µM (inactive) | 24 µM (inactive) | 73.1 µM (inactive) | > 100 µM (inactive) | 42.3 µM (inactive) | > 100 µM | > 100 µM (inactive) | > 100 µM (inactive) | > 100 µM (inactive) | 40 µM (inactive) | 73.3 µM (inactive) | 31.4 µM (inactive) | 17.5 µM (inactive) |  | > 100 µM (inactive) | 43.5 µM (inactive) | 28.5 µM (inactive) | 88.7 µM (inactive) | 93.8 µM (inactive)
4 | CCN(CC)c1ccc2cc(-c3nc4ccccc4n3C)c(=O)oc2c1 | 2.79 µM (inactive) | 0.274 µM (active) | 0.306 µM (active) | 0.685 µM (active) | 0.204 µM (active) | 0.17 µM | 0.206 µM (active) | 0.355 µM (active) | 0.533 µM (active) | 0.286 µM (active) | 0.497 µM (active) | 0.2 µM (active) | 1.74 µM (inactive) | 0.33 µM (active) | 0.163 µM (active) | > 100 µM (inactive) | 0.231 µM (active) | 3.52 µM (inactive) | 
5 | CC(CC(C)[C@H]1CCC2[C@H]3C(CC(=O)[C@@]21C)[C@@]1(C)CCC(O)C[C@H]1C[C@@H]3O)C(=O)O (stereo partly specified) | > 100 µM (inactive) | > 100 µM (inactive) | > 100 µM (inactive) | > 100 µM (inactive) | > 100 µM (inactive) | 77.3 µM | 46.8 µM (inactive) | > 100 µM (inactive) | 46.2 µM (inactive) | 61.8 µM (inactive) | > 100 µM (inactive) | > 100 µM (inactive) | > 100 µM (inactive) |  | 87.1 µM (inactive) | > 100 µM (inactive) | > 100 µM (inactive) | 58.9 µM (inactive) | > 100 µM (inactive)
6 | COc1cc(C=O)cc(/C=N/N=C/c2ccccc2O)c1O | 16.7 µM (inactive) | 10.2 µM (inactive) | 66.4 µM (inactive) |  | 26.1 µM (inactive) | 40.1 µM | < 0.01 µM (active) | 15.6 µM (inactive) | 0.0182 µM (active) | 31.4 µM (inactive) |  | 12.1 µM (inactive) | 37.3 µM (inactive) | 12.7 µM (inactive) | 62.2 µM (inactive) | 4.71 µM (inactive) | 28.4 µM (inactive) | 24.6 µM (inactive) | 3.97 µM (inactive)
